US11096985B2, “Antimicrobial peptides, their variants and uses” (priority 2015, dated 2021)
Where a SMILES comes first, the peptide text is derived from it. [ ]: non-standard residue; d: D form.

What was measured:
human erythrocytes = assay type: cell-based
Experimental: In hemolysis assays, the ability of peptides at 128 μg/ml concentration to lyse human erythrocytes to release hemoglobin was measured. The peptides described here preferably have low hemolytic activity (0.2 to 3.8% hemolysis) in mammal body. […] These peptides are useful as antimicrobial drugs as they show little or no side effects at concentrations needed to kill bacteria.
Minimum inhibition concentrations (MICs) were tested by microbroth dilution method and Chain 104, 105 and 109 inhibited the growth of Escherichia coli (ATCC 25922), Staphylococcus aureus (ATCC 25923), Klebsiella pneumoniae (ATCC 10031) and Pseudomonas aeruginosa (ATCC 27853) between 1-8 μg/ml respectively (Tables 3a, 3b and 3c). The membranolytic activities of the peptides were tested by measuring the release of hemoglobin from erythrocytes of fresh blood donated by voluntiers. Hemoglobin levels were determined spectrometrically by taking OD at 540 nm by following the protocol of Schmidtchen et al., 2011.

[1] = +4, 25, 37 and 45° C., 14 days, PBS pH 7.4, RDA with 20 μg
Experimental: (§3) Thermal stability was evaluated by diluting peptides to the concentration of 2 mg/ml in PBS buffer (pH 7.4) and incubating at different temperatures, such as +4° C., 25° C. (RT), 37° C. and 45° C., peptides stored at −20° C. were used as control. […] Peptides were also tested by diluting them at different pH values starting from pH 4 to 9. The effect of NaCl on the antimicrobial activity was tested by adding different concentrations (50, 100 and 200 mM) of NaCl to MH medium and the minimum inhibitory concentrations were tested against 4 ATCC bacterial strains.

[2] = pH 4-9, RDA
Experimental: as §3

[3] = system: gram positive and negative bacteria; assay: MIC by micro broth dilution, summary over the strains tested; assay type: cell-based
Experimental: (§1) Minimum inhibition concentrations (MICs) were determined against Escherichia coli (ATCC 25922), Staphylococcus aureus (ATCC 25923), Klebsiella pneumoniae (ATCC 10031) and Pseudomonas aeruginosa (ATCC 27853). Also clinical strains of E. coli, K. pneumoniae, E. cloacae, P. aeruginosa, Serratia marcescens, Proteus mirabilis, S. pneumoniae, Acinetobacter baumannii, A. johnsonii and S. aureus were used for MICs assays. Additionally, clinical strains of yeast including Candida albicans, C. glabrata, C. parapsilosis and C. quillermondiae were used. The susceptibility of these microorganisms to Chain peptides were determined using micro broth dilution assay. Colonies of the respective microorganism from Muller Hinton (MH) agar plates incubated overnight were suspended in MH broth media and final concentration of microorganism was adjusted to 5.0×10^5 cfu/ml. An aliquot of 10 μl of each Chain peptide, or gentamicin, tetracycline as reference antibiotics were added in differing concentrations along with 90 μl of bacterial suspension to 96 well polypropylene plates and incubated at 37° C. for 20 to 24 hours. Concentrations of Chain peptides and reference antibiotics ranged from 0.125 to 128 μg/ml and the MICs were recorded as the lowest concentration with no visual growth of bacteria. Similarly, antifungal MICs were tested in Potato dextrose broth.

S. aureus RN4220 = assay type: cell-based, Staphylococcus aureus; settings: antibiotic sensitive strain S. aureus RN4220
Experimental: as §1
(§2) Peptides Chain 104, Chain 105, Chain 201, Chain 308, Chain 310 were tested against antibiotic-sensitive strains of S. aureus RN4220 and methicillin resistant strains of S. aureus COL (MRSA). Chain peptides comprising of either L- or D-form amino acids were tested against these bacteria, and the D-form peptides were found have better activity compared to L-form (Table 6). Synergistic activity of chain peptides along with Ertapenem (4 μg/ml) was tested to know whether it will influence the activity against MRSA strains. […] Chain 310 has the best antibacterial activity against the MRSA strains with a MIC of 0.06 & 0.03 μg/ml along with Ertapenem (4 μg/ml) for both forms of L and D-peptides (Table 6).

S. aureus COL (MRSA) = assay: Synergistic activity with Ertapenem (4 μg/ml) against MRSA, MIC; assay type: cell-based, Staphylococcus aureus; settings: S. aureus COL, together with 4 μg/ml Ertapenem (synergistic activity)
Experimental: as §1, §2

CC[C@H](C)[C@H](NC(=O)[C@H](CCSC)NC(=O)[C@H](C)NC(=O)[C@H](CCCNC(=N)N)NC(=O)[C@H](Cc1c[nH]c2ccccc12)NC(=O)[C@H](CCCCN)NC(=O)[C@@H](N)CCCNC(=N)N)C(=O)N[C@@H](CCCNC(=N)N)C(=O)N[C@@H](CC(C)C)C(=O)N[C@@H](Cc1c[nH]cn1)C(=O)N[C@@H](C)C(=O)N[C@@H](CCCCN)C(=O)N[C@@H](CCCNC(=N)N)C(=O)N[C@@H](CC(C)C)C(=O)N[C@@H](CCCNC(=N)N)C(=O)N[C@@H](CCCCN)C(=O)O [Chain104] (H-RKWRAMIRLHAKRLRK-OH)
side effects to humans as tested by hemolysis assay (human erythrocytes): little side effects | thermostability (antibacterial activity kept after incubation) [1]: not hindered by pH or temperature even upto 45 °C for over 14 days | pH stability (zone of inhibition) [2]: not hindered by pH

CC(C)C[C@H](NC(=O)[C@H](Cc1c[nH]c2ccccc12)NC(=O)[C@H](Cc1ccccc1)NC(=O)[C@H](Cc1c[nH]c2ccccc12)NC(=O)[C@H](CCCCN)NC(=O)[C@H](CC(C)C)NC(=O)[C@@H](N)CCCCN)C(=O)N[C@@H](Cc1ccccc1)C(=O)N[C@@H](CCCCN)C(=O)N[C@@H](CCCCN)C(=O)N[C@@H](CCCNC(=N)N)C(=O)O [Chain311] (H-KLKWFWLFKKR-OH; N-terminus and C-terminus assumed)
activity against the four ATCC strains [3]: very active

CC[C@H](C)[C@H](NC(=O)[C@H](Cc1c[nH]c2ccccc12)NC(=O)[C@@H](N)CCCCN)C(=O)N[C@H](C(=O)N[C@@H](Cc1c[nH]c2ccccc12)C(=O)N[C@@H](CCCNC(=N)N)C(=O)N[C@@H](Cc1c[nH]c2ccccc12)C(=O)N[C@@H](CCCNC(=N)N)C(=O)N[C@@H](Cc1ccccc1)C(=O)N[C@@H](CCCCN)C(=O)N[C@@H](CCCNC(=N)N)C(=O)O)C(C)C [Compound 201] (H-KWIVWRWRFKR-OH)
Minimum inhibitory concentration (MIC), S. aureus RN4220 (S. aureus RN4220): 64 µg/mL | Minimum inhibitory concentration (MIC), S. aureus COL + 4 μg/ml Ertapenem (S. aureus COL (MRSA)): 0.5 µg/mL

CC[C@@H](C)[C@@H](NC(=O)[C@@H](CCSC)NC(=O)[C@@H](C)NC(=O)[C@@H](CCCNC(=N)N)NC(=O)[C@@H](Cc1c[nH]c2ccccc12)NC(=O)[C@@H](CCCCN)NC(=O)[C@H](N)CCCNC(=N)N)C(=O)N[C@H](CCCNC(=N)N)C(=O)N[C@H](CC(C)C)C(=O)N[C@H](Cc1c[nH]cn1)C(=O)N[C@H](C)C(=O)N[C@H](CCCCN)C(=O)N[C@H](CCCNC(=N)N)C(=O)N[C@H](CC(C)C)C(=O)N[C@H](CCCNC(=N)N)C(=O)N[C@H](CCCCN)C(=O)O [104 D] (H-[dR][dK][dW][dR][dA][dM][dI][dR][dL][dH][dA][dK][dR][dL][dR][dK]-OH)
Minimum inhibitory concentration (MIC), S. aureus RN4220 (S. aureus RN4220): 64 µg/mL | Minimum inhibitory concentration (MIC), S. aureus COL + 4 μg/ml Ertapenem (S. aureus COL (MRSA)): 4 µg/mL

CC[C@H](C)[C@H](N)C(=O)N[C@@H](Cc1c[nH]c2ccccc12)C(=O)N[C@@H](CCCCN)C(=O)N[C@@H](CCCNC(=N)N)C(=O)N[C@@H](Cc1ccccc1)C(=O)N[C@@H](CCCNC(=N)N)C(=O)N[C@@H](CC(C)C)C(=O)N[C@@H](Cc1ccccc1)C(=O)N[C@@H](CCCCN)C(=O)N[C@@H](CCCCN)C(=O)N[C@@H](Cc1c[nH]c2ccccc12)C(=O)O [Chain304] (H-IWKRFRLFKKW-OH; N-terminus and C-terminus assumed)
activity against the four ATCC strains [3]: very active

CC[C@H](C)[C@H](NC(=O)[C@H](CCSC)NC(=O)[C@H](C)NC(=O)[C@H](CCCNC(=N)N)NC(=O)[C@H](Cc1c[nH]c2ccccc12)NC(=O)[C@H](CCCCN)NC(=O)[C@@H](N)CCCNC(=N)N)C(=O)N[C@@H](CCCNC(=N)N)C(=O)N[C@@H](CC(C)C)C(=O)N[C@@H](Cc1c[nH]cn1)C(=O)N[C@@H](C)C(=O)N[C@@H](CCCCN)C(=O)N[C@@H](Cc1c[nH]c2ccccc12)C(=O)N[C@@H](CC(C)C)C(=O)N[C@@H](CCCNC(=N)N)C(=O)N[C@@H](CCCCN)C(=O)O [Compound 105] (H-RKWRAMIRLHAKWLRK-OH)
Minimum inhibitory concentration (MIC), S. aureus RN4220 (S. aureus RN4220): >64 µg/mL | Minimum inhibitory concentration (MIC), S. aureus COL + 4 μg/ml Ertapenem (S. aureus COL (MRSA)): 0.5 µg/mL

CC(C)C[C@@H](NC(=O)[C@H](N)CCCNC(=N)N)C(=O)N[C@H](CCCCN)C(=O)N[C@H](Cc1c[nH]c2ccccc12)C(=O)N[C@H](Cc1ccccc1)C(=O)N[C@H](CC(C)C)C(=O)N[C@H](CC(C)C)C(=O)N[C@H](Cc1ccccc1)C(=O)N[C@H](CCCNC(=N)N)C(=O)N[C@H](CCCCN)C(=O)N[C@H](CCCNC(=N)N)C(=O)O [308 D] (H-[dR][dL][dK][dW][dF][dL][dL][dF][dR][dK][dR]-OH)
Minimum inhibitory concentration (MIC), S. aureus RN4220 (S. aureus RN4220): 4 µg/mL | Minimum inhibitory concentration (MIC), S. aureus COL + 4 μg/ml Ertapenem (S. aureus COL (MRSA)): 1 µg/mL

CC[C@H](C)[C@H](NC(=O)[C@H](CCSC)NC(=O)[C@H](C)NC(=O)[C@H](CCCNC(=N)N)NC(=O)[C@H](Cc1c[nH]c2ccccc12)NC(=O)[C@H](CCCCN)NC(=O)[C@@H](N)CCCNC(=N)N)C(=O)N[C@@H](CCCNC(=N)N)C(=O)N[C@@H](CC(C)C)C(=O)N[C@@H](Cc1c[nH]cn1)C(=O)N[C@@H](C)C(=O)N[C@@H](CCCCN)C(=O)N[C@@H](CCCNC(=N)N)C(=O)N[C@@H](CC(C)C)C(=O)N[C@@H](CCCNC(=N)N)C(=O)N[C@@H](CCCCN)C(=O)O [Compound 104] (H-RKWRAMIRLHAKRLRK-OH)
Minimum inhibitory concentration (MIC), S. aureus RN4220 (S. aureus RN4220): >64 µg/mL | Minimum inhibitory concentration (MIC), S. aureus COL + 4 μg/ml Ertapenem (S. aureus COL (MRSA)): 0.25 µg/mL

CC(C)C[C@H](NC(=O)[C@H](CCCCN)NC(=O)[C@H](CCCCN)NC(=O)[C@H](Cc1ccccc1)NC(=O)[C@H](CC(C)C)NC(=O)[C@H](Cc1c[nH]c2ccccc12)NC(=O)[C@H](CCCNC(=N)N)NC(=O)[C@H](Cc1c[nH]c2ccccc12)NC(=O)[C@H](CCCCN)NC(=O)[C@H](CCCNC(=N)N)NC(=O)[C@@H](N)CCCCN)C(=O)O [Compound 310] (H-KRKWRWLFKKL-OH)
Minimum inhibitory concentration (MIC), S. aureus RN4220 (S. aureus RN4220): >64 µg/mL | Minimum inhibitory concentration (MIC), S. aureus COL + 4 μg/ml Ertapenem (S. aureus COL (MRSA)): 0.06 µg/mL

CC[C@@H](C)[C@@H](NC(=O)[C@@H](CCSC)NC(=O)[C@@H](C)NC(=O)[C@@H](CCCNC(=N)N)NC(=O)[C@@H](Cc1c[nH]c2ccccc12)NC(=O)[C@@H](CCCCN)NC(=O)[C@H](N)CCCNC(=N)N)C(=O)N[C@H](CCCNC(=N)N)C(=O)N[C@H](CC(C)C)C(=O)N[C@H](Cc1c[nH]cn1)C(=O)N[C@H](C)C(=O)N[C@H](CCCCN)C(=O)N[C@H](Cc1c[nH]c2ccccc12)C(=O)N[C@H](CC(C)C)C(=O)N[C@H](CCCNC(=N)N)C(=O)N[C@H](CCCCN)C(=O)O [105 D] (H-[dR][dK][dW][dR][dA][dM][dI][dR][dL][dH][dA][dK][dW][dL][dR][dK]-OH)
Minimum inhibitory concentration (MIC), S. aureus RN4220 (S. aureus RN4220): 16 µg/mL | Minimum inhibitory concentration (MIC), S. aureus COL + 4 μg/ml Ertapenem (S. aureus COL (MRSA)): 2 µg/mL

CC(C)C[C@H](NC(=O)[C@H](Cc1c[nH]c2ccccc12)NC(=O)[C@H](Cc1ccccc1)NC(=O)[C@H](Cc1c[nH]c2ccccc12)NC(=O)[C@H](CCCCN)NC(=O)[C@H](CCCNC(=N)N)NC(=O)[C@@H](N)Cc1c[nH]c2ccccc12)C(=O)N[C@@H](Cc1ccccc1)C(=O)N[C@@H](CCCCN)C(=O)N[C@@H](CCCCN)C(=O)N[C@@H](CCCNC(=N)N)C(=O)O [Chain309] (H-WRKWFWLFKKR-OH; N-terminus and C-terminus assumed)
activity against the four ATCC strains [3]: very active

CC(C)C[C@H](NC(=O)[C@H](CCCCN)NC(=O)[C@H](Cc1c[nH]c2ccccc12)NC(=O)[C@H](CCCCN)NC(=O)[C@H](C)NC(=O)[C@H](Cc1c[nH]cn1)NC(=O)[C@H](CC(C)C)NC(=O)[C@H](CCCNC(=N)N)NC(=O)[C@H](Cc1c[nH]c2ccccc12)NC(=O)[C@@H](N)Cc1c[nH]c2ccccc12)C(=O)N[C@@H](Cc1c[nH]c2ccccc12)C(=O)O [Chain109] (H-WWRLHAKWKLW-OH)
side effects to humans as tested by hemolysis assay (human erythrocytes): little side effects
